For 3 compounds, Kd results are on record in paper PMC10947015, “Constraining and Modifying Peptides Using Pd‐Mediated Cysteine Allylation” (Chembiochem, 2023).

Where two headings read alike, the source gives them in different places. Starred links: 1 amine or outer side, 2 acyl side, 3 side chain; linkers in the order of their positions; H or OH if unused. Positions of bridges follow the written chain, without caps; N, C: chain ends. Non-standard residues stand in square brackets, D forms with d. Residues, ends and D or L forms follow the SMILES beside them. Groups on a side chain read outwards from the residue. *: point of attachment. X1 = O=C(CCCC[C@@H]1SC[C@@H]2NC(=O)N[C@@H]21)NCCCOCCOCCOCCCN*; Tyr(3-NO2) = N[C@@H](Cc1ccc(O)c([N+](=O)[O-])c1)C(=O)O; Glutaryl = O=C(CCCC(=O)[*:2])[*:1]; Hyp = O=C(O)[C@@H]1C[C@@H](O)CN1; X2 = C(=C/C[*:2])/C[*:1]; X3 = C(#CC[*:2])C[*:1]

The target in this test is T1, integrin α3β1 (Homo sapiens, UniProt P05556+P26006).
T1 construct: integrin α3β1 expressed on human MDA‐MB231 cells; endogenous in cells; host or cells: MDA-MB231 (human)
Briefly: Binding of stapled peptides to integrin α3β1 on MDA-MB231 cells, flow cytometry with streptavidin-PerCP-Cy5.5 staining. The method, then:
The obtained stapled peptides P1 a–g were tested for binding to integrin α3β1 expressed on human MDA‐MB231 cells (Figure S2). Upon incubation for 30 min with different concentrations of the stapled P1 a–g variants, streptavidin‐PerCP‐Cy5.5 was added after three washing steps to allow detection by flow cytometry. Peptide P2 (P1 in its disulfide cyclized form) served as a positive control, which bound with an apparent affinity of 100 nM.[23]
Binding of stapled peptides to murine 4T1 cells and human MDA-MB231 cells
Figure S2: Determination of Kd values for peptides P1a-h based on streptavidin-PerCP-Cy5.5 staining of integrin- containing cells incubated with different peptide concentrations. A: Peptides P1a-c in mouse 4T1 cells. B: P1a-c in human MDA-MB231 cells. C: Peptides P1d-h in human MDA-MB231 cells.
4T1 and MDA-MB231 cells were grown in culture according to the suppliers’ guidelines, and cells were detached by using trypsin/EDTA (PAN, diluted 1:2 with PBS). Resuspended cells in complete culture medium were centrifuged and washed once with washing buffer [HEPES (pH 7.3, 10 mM) in NaCl (0.9 %)] at 4°C and resuspended (2x10^6 cells mL-1) in peptide blocking buffer (PBB): HEPES (pH 7.3, 10 mM) in NaCl (0.9%) + KCl (5 mM), BSA (3%) + FCS (5 %) + MnCl2 (4 mM). Peptide samples were prepared at twice the final concentration in PBB and added to the cells to give final peptide concentrations of 1 nM - 3 µM. Cells (1x105 per 50 µL) were aliquoted into FACS tubes and incubated for 10 min on ice before addition of the peptide samples (50 µL). […]
PerCP-Cy5.5 (100 µL, Beckton Dickinson, 0.5 mg mL-1) in PBB. […] Cells were kept on ice until analysis with a FACS Canto instrument and 10000 events/sample were recorded. Data were evaluated with Flowing software. Gating was performed on single and live cells, and histograms of PerCP–Cy5.5 fluorescence were plotted. Kd values were calculated by fitting the data to a one-site specific binding model [Y=BmaxVX/(Kd+X)] by using GraphPad Prism, and errors represent the standard error of the fit.
For orientation: A flow cytometer gives signals particle by particle.

[1] abbreviates: Figure 2, integrin α3β1, flow cytometry binding, read-out: Kd.

T1 sequence (P26006 33-872 limits assumed): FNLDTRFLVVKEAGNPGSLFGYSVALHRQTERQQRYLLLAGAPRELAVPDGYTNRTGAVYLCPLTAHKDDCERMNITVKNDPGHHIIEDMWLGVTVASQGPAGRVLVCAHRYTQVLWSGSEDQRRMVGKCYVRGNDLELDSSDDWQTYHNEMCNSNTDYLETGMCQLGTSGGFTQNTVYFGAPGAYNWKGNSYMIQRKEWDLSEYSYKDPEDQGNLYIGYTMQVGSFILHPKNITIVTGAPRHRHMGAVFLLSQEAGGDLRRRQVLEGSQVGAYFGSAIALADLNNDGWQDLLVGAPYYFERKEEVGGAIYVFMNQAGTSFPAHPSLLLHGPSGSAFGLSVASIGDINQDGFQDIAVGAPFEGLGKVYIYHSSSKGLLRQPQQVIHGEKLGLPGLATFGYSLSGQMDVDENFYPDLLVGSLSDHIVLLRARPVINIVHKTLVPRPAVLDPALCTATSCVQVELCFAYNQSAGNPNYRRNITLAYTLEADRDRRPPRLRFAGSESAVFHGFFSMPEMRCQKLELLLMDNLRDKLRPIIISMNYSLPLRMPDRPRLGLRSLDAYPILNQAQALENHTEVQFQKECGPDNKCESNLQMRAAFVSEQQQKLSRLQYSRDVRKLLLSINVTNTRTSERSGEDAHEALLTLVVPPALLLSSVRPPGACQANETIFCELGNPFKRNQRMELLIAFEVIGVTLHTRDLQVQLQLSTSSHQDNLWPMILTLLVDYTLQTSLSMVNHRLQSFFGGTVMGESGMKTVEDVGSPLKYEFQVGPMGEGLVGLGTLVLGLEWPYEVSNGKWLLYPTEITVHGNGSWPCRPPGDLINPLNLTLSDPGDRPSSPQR
T1 sequence (P26006 878-1051 limits assumed): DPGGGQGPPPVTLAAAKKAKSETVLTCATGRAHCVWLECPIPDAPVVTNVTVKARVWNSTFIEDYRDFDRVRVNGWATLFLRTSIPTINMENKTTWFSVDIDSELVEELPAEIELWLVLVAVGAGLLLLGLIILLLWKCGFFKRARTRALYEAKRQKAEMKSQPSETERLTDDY
T1 sequence (P05556 21-798): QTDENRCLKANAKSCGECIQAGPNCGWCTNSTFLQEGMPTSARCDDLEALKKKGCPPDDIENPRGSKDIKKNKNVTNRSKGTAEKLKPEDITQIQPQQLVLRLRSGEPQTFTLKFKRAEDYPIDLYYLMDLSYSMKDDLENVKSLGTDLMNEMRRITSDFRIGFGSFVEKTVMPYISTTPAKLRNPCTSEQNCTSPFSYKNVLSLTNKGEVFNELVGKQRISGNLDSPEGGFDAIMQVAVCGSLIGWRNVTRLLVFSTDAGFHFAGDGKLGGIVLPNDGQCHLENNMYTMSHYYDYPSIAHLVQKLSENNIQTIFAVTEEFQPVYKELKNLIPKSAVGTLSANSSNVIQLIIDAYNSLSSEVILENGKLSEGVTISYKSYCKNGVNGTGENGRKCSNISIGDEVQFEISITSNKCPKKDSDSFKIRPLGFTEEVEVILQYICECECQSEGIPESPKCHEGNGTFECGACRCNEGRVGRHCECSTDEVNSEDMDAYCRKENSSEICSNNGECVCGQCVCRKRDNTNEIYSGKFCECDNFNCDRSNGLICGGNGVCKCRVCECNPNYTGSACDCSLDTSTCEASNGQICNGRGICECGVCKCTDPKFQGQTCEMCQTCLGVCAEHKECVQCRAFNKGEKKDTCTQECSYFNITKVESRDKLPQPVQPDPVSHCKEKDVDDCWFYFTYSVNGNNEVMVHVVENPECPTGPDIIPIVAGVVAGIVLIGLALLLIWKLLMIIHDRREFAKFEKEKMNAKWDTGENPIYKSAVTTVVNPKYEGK

As to `NC(=O)C[C@@H]1NC(=O)[C@@H]2C[C@@H](O)CN2C(=O)CNC(=O)[C@H](Cc2ccc(O)c([N+](=O)[O-])c2)NC(=O)CNC(=O)[C@@H](CC(=O)O)NC(=O)[C@H](N)CSC/C=C\CSC[C@H](C(=O)NCC(=O)NCC(=O)N[C@@H](CCCCNC(=O)CCCC(=O)NCCCOCCOCCOCCCNC(=O)CCCC[C@@H]2SC[C@@H]3NC(=O)N[C@@H]32)C(N)=O)NC1=O` [P1 a] (H-[dC][dD]G[Tyr(3-NO2)]G[Hyp]N[dC]GGK([Glutaryl-X1])-NH2; linker 1-8 via X2), under setting [1], the Kd was 13 µM.
For `NC(=O)C[C@@H]1NC(=O)[C@@H]2C[C@@H](O)CN2C(=O)CNC(=O)[C@H](Cc2ccc(O)c([N+](=O)[O-])c2)NC(=O)CNC(=O)[C@@H](CC(=O)O)NC(=O)[C@H](N)CSSC[C@H](C(=O)NCC(=O)NCC(=O)N[C@@H](CCCCNC(=O)CCCC(=O)NCCCOCCOCCOCCCNC(=O)CCCC[C@@H]2SC[C@@H]3NC(=O)N[C@@H]32)C(N)=O)NC1=O` [Peptide P2, reference compound] (H-[dC][dD]G[Tyr(3-NO2)]G[Hyp]N[dC]GGK([Glutaryl-X1])-NH2; disulfide 1-8), under setting [1], the Kd came to 0.1 µM.
As to `NC(=O)C[C@@H]1NC(=O)[C@@H]2C[C@@H](O)CN2C(=O)CNC(=O)[C@H](Cc2ccc(O)c([N+](=O)[O-])c2)NC(=O)CNC(=O)[C@@H](CC(=O)O)NC(=O)[C@H](N)CSCC#CCSC[C@H](C(=O)NCC(=O)NCC(=O)N[C@@H](CCCCNC(=O)CCCC(=O)NCCCOCCOCCOCCCNC(=O)CCCC[C@@H]2SC[C@@H]3NC(=O)N[C@@H]32)C(N)=O)NC1=O` [P1 d] (H-[dC][dD]G[Tyr(3-NO2)]G[Hyp]N[dC]GGK([Glutaryl-X1])-NH2; linker 1-8 via X3), the Kd (integrin α3β1 expressed on human MDA-MB231 cells, 30 min incubation on ice, streptavidin-PerCP-Cy5.5, flow cytometry, one-site specific binding fit, read-out: binding affinity) is around 10 µM.
